For series [1], the system named is plasmid nucleic acid pRSVLuc. Put plainly: Surface plasmon resonance (BIAcore) binding kinetics of peptides/conjugates to immobilized biotinylated plasmid DNA. The settings on record: apparent rate constant for dissociation; SPR, PBS, 25° C. As for the experimental part: In the examples described below, SPR was detected using the BIAcore system. This machine contained an SPR detector and an integrated microfluidic cartridge which is engineered such that an analyte solution (cationic peptide) is continuously passed over the sensor chip. The sensor chip consists of a glass plate coated with a thin film of gold covered in a layer of carboyxymethyl dextran. The chip used has a dextran layer to which streptavidin is covalently attached. The chip is prepared for use by adding biotinylated nucleic acid which will be bound to the chip via the streptavidin-biotin interaction, and the same chip is used in a series of experiments.
As material binds to the immobilized nucleic acid molecule on the sensor chip, the SPR angle of plane polarized light shining on the surface of the chip is monitored by the detector. Changes in angle are defined as resonance units (RU) and data are collected every second. Background effects are detected and automatically subtracted by the use of a control flow cell in line with the nucleic acid flow cell.
A typical sensorgram has three phases: an association phase, an equilibrium phase and a dissociation phase (see FIG. 1). The rise in signal occurs as more peptide binds to the immobilized plasmid DNA until equilibrium conditions are reached. The height of the peak is directly proportional to the mass of peptide bound. If the flow continues with buffer containing no peptide, peptide begins to dissociate from the complex and the resonance signal is reduced. The sensorgram can be used to compute apparent rate constants for each of the three individual processes.
(1) dC/dt=ka [PF ] [Pmax -PB ]-kd [PB ]
Measurement of Binding Kinetics by Surface Plasmon Resonance
A 6 kilobase (kb) plasmid DNA (pRSVLuc) was biotinylated using photoactivatable biotin (Pierce and Warriner) as per manufacturer's instructions.
A sensor chip with immobilized streptavidin (SA5) was conditioned following manufacturer's instructions, i.e., three one-minute injections of 1 M NaCl: 50 mM NaOH followed by one 1 min injection of 0.5% SDS. Flow rate on the BlAcore sensing device was 20 μl per min, running buffer was phosphate buffered saline (PBS). Flow path was flow cells 1 and 2.
The flow path was switched to flow cell 2 only and the flow rate was reduced to 10 μl per minute. Biotinylated plasmid at a concentration of […] in 0.5M NaCl was injected for 3 mins.
Phosphate buffered saline was used as running buffer at a flow rate of 20 μl per minute. The flow path was over flow cells 1 and 2. Flow cell 1 was used as a reference cell. The experiments were carried out at a temperature of 25° C.
Peptides were injected at various concentrations for three minutes. The injection was followed by a 5 min dissociation phase before the injection port was washed. The sensor chip was regenerated by the injection of 2M NaCl for 1 min. If necessary, this injection was repeated to bring the response back down to baseline before the next peptide sample was injected.
The data was analysed using the methods described in the handbook (BIAevaluation 2.1. Software Handbook, Pharmacia Biosensor AB, Uppsala, Sweden).
Essentially the plots were evaluated as follows: The dissociation constant, kd, was determined first. A curve or family of curves (same NBC at different concentrations) were plotted as response (Y) versus time as Ln (Yo/Y) versus time. In the area where the Ln(Yo/Y) curve was linear, a fit of the default dissociation model [AB]=[A]+[B] was made. The association constant, ka, was then calculated by fitting the related association model on that part of the association curve where a plot of In(abs(dY/dt) versus time was linear. KD were approximated by dividing the calculated kd with the calculated ka.

The conditions of series [2]: without salt at >20 μg/ml.

* marks the point of attachment. Acm = CC(=O)NC*

As for “NH2-KPKAAKPKKPKKKRKVEKKSPKKAKKPAAC(Acm)-COOH (H-KPKAAKPKKPKKKRKVEKKSPKKAKKPAAC(Acm)-OH; SMILES CC(=O)NCSC[C@H](NC(=O)[C@H](C)NC(=O)[C@H](C)NC(=O)[C@@H]1CCCN1C(=O)[C@H](CCCCN)NC(=O)[C@H](CCCCN)NC(=O)[C@H](C)NC(=O)[C@H](CCCCN)NC(=O)[C@H](CCCCN)NC(=O)[C@@H]1CCCN1C(=O)[C@H](CO)NC(=O)[C@H](CCCCN)NC(=O)[C@H](CCCCN)NC(=O)[C@H](CCC(=O)O)NC(=O)[C@@H](NC(=O)[C@H](CCCCN)NC(=O)[C@H](CCCNC(=N)N)NC(=O)[C@H](CCCCN)NC(=O)[C@H](CCCCN)NC(=O)[C@H](CCCCN)NC(=O)[C@@H]1CCCN1C(=O)[C@H](CCCCN)NC(=O)[C@H](CCCCN)NC(=O)[C@@H]1CCCN1C(=O)[C@H](CCCCN)NC(=O)[C@H](C)NC(=O)[C@H](C)NC(=O)[C@H](CCCCN)NC(=O)[C@@H]1CCCN1C(=O)[C@@H](N)CCCCN)C(C)C)C(=O)O) [NBC2]”, the kd in series [1] came to 0.00938 s⁻¹. In addition, the solubility of complexes result in series [2] is reported as “insoluble”.

The values above are taken from US6218112A, “Optimization of gene delivery and gene delivery system” (Cobra Therapeutics Limited, priority 1997, dated 2001).
